In paper PMC11642016 (International Journal of Molecular Sciences, 2024):
Where “and” joins values, the source holds several entries; their conditions need not be identical. Equal entries are not always repeated. Where two headings read alike, the source gives them in different places.

Key:
[1] = CellTiter-Glo luminescent cell viability assay, primary fibroblasts; settings: human, primary skin fibroblasts (non-tumorous), Primer fibroblast Cell viability (% of controll), 72 h, dose–response, individual replicates
[2] = test system: non-tumorous primary fibroblast cells; test: as above; settings: for Primer fibroblast Cell viability (% of controll): dose–response, individual replicates; for IC50: Homo sapiens, Fibroblast
PANC-1 cells = test: CellTiter-Glo luminescent cell viability assay, PANC-1
Protocol: Primary fibroblast cultures were prepared from human skin biopsies and maintained in DMEM supplemented with 10% FBS, 1% penicillin-streptomycin, and 1% MEM Non-Essential Amino Acids Solution (Thermo Fisher Scientific). […] All cell lines were cultured in a humidified atmosphere at 37 °C and 5% CO2, passaged twice a week, and the experiments were performed on cells between passage 5 and 15. The cell lines were routinely screened for the absence of mycoplasma infection (DAPI staining).
The effects of the synthesized compounds on cell viability were measured using the CellTiter-Glo® luminescent cell viability assay (Promega, Madison, WI, USA), according to the manufacturer’s instructions. Briefly, cells were seeded onto a flat-bottomed, white 96-well plate (BRANDplates, cat. no.: 781965)), with the following densities: PANC-1: 750 cells/well, Fadu: 2000 cells/well, primary fibroblasts: 2000 cells/well, HEK293T WT: 1000 cells/well, HEK293T CLPP^−/−: 2500 cells/well. After seeding, cells were incubated for a further 48 h before treatment. Cells were treated with the compounds for 72 h. Three concentrations (25.0 µM; 8.3 µM; 2.8 µM) were applied during the initial cell viability screening, while for the determination of dose–response curves, 1.5-fold serially diluted compound concentrations were applied (range: 26 µM–0.7 µM). After treatment, the luminescence signal was recorded using a microplate reader (BioTek Synergy 2 Multi-Mode Reader, BioTek, Winooski, VT, USA).
Data analysis was performed using GraphPad Prism 9.5.0 software (GraphPad Software, San Diego, CA, USA). […] The dose–response curves were generated by four-parameter nonlinear regression, and the IC50 values were determined as the means ± SEM of the best-fit values of 3 independent measurements. The R^2 values were consistently above 0.93, indicating a strong fit of the model to the experimental data (Supplementary S.89). […] Dunnett’s post hoc test was applied to adjust for multiple comparisons, minimizing the likelihood of false positive results. Assumptions for ANOVA, including normality (assessed via QQ plots) and homogeneity of variance (tested using the Brown–Forsythe test), were verified. The following significance levels were applied: * p < 0.05, ** p < 0.01, *** p < 0.001, **** p < 0.0001. […] The tumor selectivity of the compounds was quantitatively characterized by the selectivity index (SI). This parameter was calculated as the ratio of the average best-fit IC50 value for primary fibroblasts and the best-fit IC50 value for the corresponding tumor cells (PANC-1 or Fadu).

Fadu cells = test: CellTiter-Glo luminescent cell viability assay, Fadu
[3] = 0.7 μM, 72 h, dose–response, individual replicates
[4] = 1 μM, 72 h, dose–response, individual replicates
[5] = 2.3 μM, 72 h, dose–response, individual replicates
[6] = 3.4 μM, 72 h, dose–response, individual replicates
[7] = 5.1 μM, 72 h, dose–response, individual replicates
[8] = 7.7 μM, 72 h, dose–response, individual replicates
[9] = 17.3 μM, 72 h, dose–response, individual replicates
[10] = 26 μM, 72 h, dose–response, individual replicates

CNCC#Cc1cccc(CN2C(=O)C3=C(CCN(Cc4ccc(-n5cc(-c6ccc(F)cc6)nn5)cc4)C3)N3CCN=C23)c1 [43b]
viability at 72 h, 0.7 µM ([1]; 0.7 μM): 96%
viability at 72 h, 1 µM ([1]; 1 μM): 102%
viability at 72 h, 1.5 µM ([1]; 1.5 μM): 107%
viability at 72 h, 2.3 µM ([1]; 2.3 μM): 105%
viability at 72 h, 5.1 µM ([1]; 5.1 μM): 0%
viability at 72 h, 7.7 µM ([1]; 7.7 μM): 0%
viability at 72 h, 17.3 µM ([1]; 17.3 μM): 0%
viability at 72 h, 26 µM ([1]; 26 μM): 0%
Primer fibroblast Cell viability (% of controll) ([2]; 0.7 μM, 72 h): 105 % of controll and 104 % of controll
Primer fibroblast Cell viability (% of controll) ([2]; 1 μM, 72 h): 113 % of controll and 103 % of controll
Primer fibroblast Cell viability (% of controll) ([2]; 1.5 μM, 72 h): 105 % of controll and 97 % of controll
Primer fibroblast Cell viability (% of controll) ([2]; 2.3 μM, 72 h): 99 % of controll
Primer fibroblast Cell viability (% of controll) ([2]; 3.4 μM, 72 h): 89 % of controll and 54 % of controll and 50 % of controll
Primer fibroblast Cell viability (% of controll) ([2]; 5.1 μM, 72 h): 0 % of controll
Primer fibroblast Cell viability (% of controll) ([2]; 7.7 μM, 72 h): 0 % of controll
Primer fibroblast Cell viability (% of controll) ([2]; 17.3 μM, 72 h): 0 % of controll
Primer fibroblast Cell viability (% of controll) ([2]; 26 μM, 72 h): 0 % of controll
IC50 ([2]; 72 h, read-out: IC50 Value ± SEM Primary Fibroblast, 72 h treatment, best-fit values, n = 3): 3.5 ± 0.17 µM
IC50 ([2]; read-out: Primary fibroblast IC50 values, Mean, mean of independently fitted replicate IC50 values (Supplement S.6), ONC201 value mathematically estimated from inflection point): 3.46 µM
PANC-1 Cell viability (% of controll) (PANC-1 cells; [3]): 103 % of controll and 101 % of controll
PANC-1 Cell viability (% of controll) (PANC-1 cells; [4]): 107 % of controll
PANC-1 Cell viability (% of controll) (PANC-1 cells; 1.5 μM, 72 h, dose–response, individual replicates): 99 % of controll and 110 % of controll
PANC-1 Cell viability (% of controll) (PANC-1 cells; [5]): 102 % of controll and 103 % of controll
PANC-1 Cell viability (% of controll) (PANC-1 cells; [6]): 10 % of controll and 7 % of controll
PANC-1 Cell viability (% of controll) (PANC-1 cells; [7]): 0 % of controll
PANC-1 Cell viability (% of controll) (PANC-1 cells; [8]): 0 % of controll
PANC-1 Cell viability (% of controll) (PANC-1 cells; [9]): 0 % of controll
PANC-1 Cell viability (% of controll) (PANC-1 cells; [10]): 0 % of controll
IC50 (PANC-1 cells; Homo sapiens, PANC-1, 72 h, read-out: IC50 Value ± SEM PANC-1, 72 h treatment, best-fit values, n = 3): 3.1 ± 0.17 µM
viability at 0.7 µM (PANC-1 cells; Homo sapiens, PANC-1, 72 h, read-out: PANC-1 Cell viability (% of controll), 0.7 μM, 72 h, dose–response, individual replicates): 104%
viability at 1 µM (PANC-1 cells; Homo sapiens, PANC-1, 72 h, read-out: PANC-1 Cell viability (% of controll), 1 μM, 72 h, dose–response, individual replicates): 104%
viability at 1.5 µM (PANC-1 cells; Homo sapiens, PANC-1, 72 h, read-out: PANC-1 Cell viability (% of controll), 1.5 μM, 72 h, dose–response, individual replicates): 104%
viability at 2.3 µM (PANC-1 cells; Homo sapiens, PANC-1, 72 h, read-out: PANC-1 Cell viability (% of controll), 2.3 μM, 72 h, dose–response, individual replicates): 106%
viability at 3.4 µM (PANC-1 cells; Homo sapiens, PANC-1, 72 h, read-out: PANC-1 Cell viability (% of controll), 3.4 μM, 72 h, dose–response, individual replicates): 13%
viability at 5.1 µM (PANC-1 cells; Homo sapiens, PANC-1, 72 h, read-out: PANC-1 Cell viability (% of controll), 5.1 μM, 72 h, dose–response, individual replicates): 0%
viability at 7.7 µM (PANC-1 cells; Homo sapiens, PANC-1, 72 h, read-out: PANC-1 Cell viability (% of controll), 7.7 μM, 72 h, dose–response, individual replicates): 0%
viability at 17.3 µM (PANC-1 cells; Homo sapiens, PANC-1, 72 h, read-out: PANC-1 Cell viability (% of controll), 17.3 μM, 72 h, dose–response, individual replicates): 0%
viability at 26 µM (PANC-1 cells; Homo sapiens, PANC-1, 72 h, read-out: PANC-1 Cell viability (% of controll), 26 μM, 72 h, dose–response, individual replicates): 0%
IC50 (PANC-1 cells; Homo sapiens, PANC-1, read-out: PANC-1 IC50 values, Mean, mean of independently fitted replicate IC50 values (Supplement S.6)): 3.06 µM
Selectivity Index (SI) Fibroblast/PANC-1 (PANC-1 cells; ratio of mean best-fit IC50 for primary fibroblasts and best-fit IC50 for PANC-1): 1.1
Fadu Cell viability (% of controll) (Fadu cells; [3]): 108 % of controll and 104 % of controll
Fadu Cell viability (% of controll) (Fadu cells; [4]): 106 % of controll and 101 % of controll
Fadu Cell viability (% of controll) (Fadu cells; [5]): 96 % of controll and 91 % of controll
Fadu Cell viability (% of controll) (Fadu cells; [6]): 58 % of controll and 46 % of controll and 27 % of controll
Fadu Cell viability (% of controll) (Fadu cells; [7]): 1 % of controll and 0 % of controll
Fadu Cell viability (% of controll) (Fadu cells; [8]): 0 % of controll
Fadu Cell viability (% of controll) (Fadu cells; [9]): 0 % of controll
Fadu Cell viability (% of controll) (Fadu cells; [10]): 0 % of controll
viability at 0.7 µM (Fadu cells; Homo sapiens, FaDu, 72 h, read-out: Fadu Cell viability (% of controll), 0.7 μM, 72 h, dose–response, individual replicates): 108%
viability at 1 µM (Fadu cells; Homo sapiens, FaDu, 72 h, read-out: Fadu Cell viability (% of controll), 1 μM, 72 h, dose–response, individual replicates): 102%
viability at 1.5 µM (Fadu cells; Homo sapiens, FaDu, 72 h, read-out: Fadu Cell viability (% of controll), 1.5 μM, 72 h, dose–response, individual replicates): 105%
viability at 2.3 µM (Fadu cells; Homo sapiens, FaDu, 72 h, read-out: Fadu Cell viability (% of controll), 2.3 μM, 72 h, dose–response, individual replicates): 91%
viability at 7.7 µM (Fadu cells; Homo sapiens, FaDu, 72 h, read-out: Fadu Cell viability (% of controll), 7.7 μM, 72 h, dose–response, individual replicates): 0%
viability at 17.3 µM (Fadu cells; Homo sapiens, FaDu, 72 h, read-out: Fadu Cell viability (% of controll), 17.3 μM, 72 h, dose–response, individual replicates): 0%
viability at 26 µM (Fadu cells; Homo sapiens, FaDu, 72 h, read-out: Fadu Cell viability (% of controll), 26 μM, 72 h, dose–response, individual replicates): 0%
IC50 (Fadu cells; Homo sapiens, FaDu, 72 h, read-out: IC50 Value ± SEM Fadu, 72 h treatment, best-fit values, n = 3): 3.2 ± 0.06 µM
IC50 (Fadu cells; Homo sapiens, FaDu, read-out: Fadu IC50 values, Mean, mean of independently fitted replicate IC50 values (Supplement S.6)): 3.25 µM
Selectivity Index (SI) Fibroblast/Fadu (Fadu cells; ratio of mean best-fit IC50 for primary fibroblasts and best-fit IC50 for Fadu): 1.1
